Where two headings read alike, the source gives them in different places. Values belong to the compound of their own block, whether it stands above or below them.
What was measured:
human TLR9 = human TLR9 (Homo sapiens (Human), UniProt Q9NR96); experiment: TLR9 inhibition reporter assay (HEK-Blue SEAP);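 further: SEAP driven by an IFN-β minimal promoter with NF-κB and AP-1 sites, read after 22 h, compounds dosed 0.05 nM–50 µM, inhibition scaled between agonist plus DMSO and reference-inhibitor wells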
human TLR7 = human TLR7 (Homo sapiens (Human), UniProt Q9NYK1); experiment: TLR7 inhibition reporter assay (HEK-Blue SEAP); format: cell-based
human TLR8 = human TLR8 (Homo sapiens (Human), UniProt Q9NR97); experiment: TLR8 inhibition reporter assay (HEK-Blue SEAP);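 further: SEAP driven by IFN-β minimal promoter carrying NF-κB and AP-1 sites, compounds dosed 0.05 nM to 50 µM for 22 h, inhibition scaled between agonist-plus-DMSO and reference-inhibitor wells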
[1] = read-out: TLR9 IC50, HEK-Blue cells overexpressing human TLR9, ODN2006 5 nM stimulation, SEAP reporter
[2] = HEK-Blue cells overexpressing human TLR7, gardiquimod 7.5 μM stimulation, SEAP reporter
[3] = read-out: TLR8 IC50, HEK-Blue cells overexpressing human TLR8, R848 15.9 μM stimulation, SEAP reporter
[4] = read-out: TLR9 IC50, HEK-Blue human TLR9 cells, ODN2006 5 nM
[5] = HEK-Blue human TLR7 cells, gardiquimod 7.5 μM
[6] = read-out: TLR8 IC50, HEK-Blue human TLR8 cells, R848 15.9 μM
[7] = read-out: TLR9 IC50, HEK-Blue cells overexpressing human TLR9, SEAP reporter, ODN2006 5 nM
[8] = HEK-Blue cells overexpressing human TLR7, SEAP reporter, gardiquimod 7.5 μM
[9] = read-out: TLR8 IC50, HEK-Blue cells overexpressing human TLR8, SEAP reporter, R848 15.9 μM

human TLR7, sequence (Q9NYK1 27-1049): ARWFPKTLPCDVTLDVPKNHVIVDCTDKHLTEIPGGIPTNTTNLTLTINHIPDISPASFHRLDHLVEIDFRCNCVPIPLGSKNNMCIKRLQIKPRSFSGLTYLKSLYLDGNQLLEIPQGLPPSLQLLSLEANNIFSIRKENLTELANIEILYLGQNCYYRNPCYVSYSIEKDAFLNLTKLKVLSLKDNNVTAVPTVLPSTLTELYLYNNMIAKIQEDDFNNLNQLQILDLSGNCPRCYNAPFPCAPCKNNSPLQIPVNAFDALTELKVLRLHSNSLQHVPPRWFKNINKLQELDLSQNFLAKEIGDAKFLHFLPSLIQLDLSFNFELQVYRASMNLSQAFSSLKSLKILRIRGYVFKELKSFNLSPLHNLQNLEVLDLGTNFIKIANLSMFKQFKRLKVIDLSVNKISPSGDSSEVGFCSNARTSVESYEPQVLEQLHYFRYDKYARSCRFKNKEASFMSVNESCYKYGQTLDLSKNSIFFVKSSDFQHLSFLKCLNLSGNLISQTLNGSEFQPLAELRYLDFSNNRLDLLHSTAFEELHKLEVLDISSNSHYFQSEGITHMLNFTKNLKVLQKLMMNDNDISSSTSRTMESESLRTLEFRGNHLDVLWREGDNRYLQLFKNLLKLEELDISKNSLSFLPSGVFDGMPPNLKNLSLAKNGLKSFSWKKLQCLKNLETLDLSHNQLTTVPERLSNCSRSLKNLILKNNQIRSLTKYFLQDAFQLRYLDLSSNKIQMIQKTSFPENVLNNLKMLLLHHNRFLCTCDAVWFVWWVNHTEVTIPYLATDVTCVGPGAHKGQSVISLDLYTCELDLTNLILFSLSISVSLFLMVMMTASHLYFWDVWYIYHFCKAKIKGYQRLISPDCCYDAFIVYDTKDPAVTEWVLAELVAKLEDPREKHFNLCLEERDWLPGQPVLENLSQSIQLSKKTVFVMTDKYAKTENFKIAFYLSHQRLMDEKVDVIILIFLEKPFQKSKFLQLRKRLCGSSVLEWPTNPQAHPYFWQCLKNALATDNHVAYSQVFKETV
human TLR9, sequence (Q9NR96 26-1032): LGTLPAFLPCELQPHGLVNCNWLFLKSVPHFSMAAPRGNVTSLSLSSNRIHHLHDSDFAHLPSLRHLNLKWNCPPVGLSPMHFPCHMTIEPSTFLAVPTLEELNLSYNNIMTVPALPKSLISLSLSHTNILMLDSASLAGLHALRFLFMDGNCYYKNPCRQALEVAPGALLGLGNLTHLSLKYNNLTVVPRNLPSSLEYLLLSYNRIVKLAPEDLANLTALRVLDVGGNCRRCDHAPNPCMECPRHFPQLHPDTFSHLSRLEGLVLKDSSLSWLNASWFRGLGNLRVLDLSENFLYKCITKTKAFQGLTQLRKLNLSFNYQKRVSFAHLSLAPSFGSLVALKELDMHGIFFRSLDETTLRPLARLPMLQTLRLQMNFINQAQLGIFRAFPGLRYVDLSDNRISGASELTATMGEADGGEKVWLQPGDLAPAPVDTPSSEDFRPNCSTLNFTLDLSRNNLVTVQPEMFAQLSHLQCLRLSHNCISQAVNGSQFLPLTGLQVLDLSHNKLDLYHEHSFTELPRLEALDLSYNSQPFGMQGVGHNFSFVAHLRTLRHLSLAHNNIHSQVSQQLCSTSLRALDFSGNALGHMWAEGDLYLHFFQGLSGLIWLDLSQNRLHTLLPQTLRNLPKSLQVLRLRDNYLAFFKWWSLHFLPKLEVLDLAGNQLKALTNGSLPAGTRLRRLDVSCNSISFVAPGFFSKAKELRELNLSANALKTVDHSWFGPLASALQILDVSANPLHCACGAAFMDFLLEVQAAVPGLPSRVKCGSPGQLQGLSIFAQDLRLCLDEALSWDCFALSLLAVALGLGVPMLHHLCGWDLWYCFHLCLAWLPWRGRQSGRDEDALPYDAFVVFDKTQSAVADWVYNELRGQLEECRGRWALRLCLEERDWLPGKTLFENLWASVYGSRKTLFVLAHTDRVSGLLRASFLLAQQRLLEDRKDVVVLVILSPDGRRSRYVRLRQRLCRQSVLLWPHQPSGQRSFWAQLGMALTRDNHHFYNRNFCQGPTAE
human TLR8, sequence (Q9NR97 27-1041): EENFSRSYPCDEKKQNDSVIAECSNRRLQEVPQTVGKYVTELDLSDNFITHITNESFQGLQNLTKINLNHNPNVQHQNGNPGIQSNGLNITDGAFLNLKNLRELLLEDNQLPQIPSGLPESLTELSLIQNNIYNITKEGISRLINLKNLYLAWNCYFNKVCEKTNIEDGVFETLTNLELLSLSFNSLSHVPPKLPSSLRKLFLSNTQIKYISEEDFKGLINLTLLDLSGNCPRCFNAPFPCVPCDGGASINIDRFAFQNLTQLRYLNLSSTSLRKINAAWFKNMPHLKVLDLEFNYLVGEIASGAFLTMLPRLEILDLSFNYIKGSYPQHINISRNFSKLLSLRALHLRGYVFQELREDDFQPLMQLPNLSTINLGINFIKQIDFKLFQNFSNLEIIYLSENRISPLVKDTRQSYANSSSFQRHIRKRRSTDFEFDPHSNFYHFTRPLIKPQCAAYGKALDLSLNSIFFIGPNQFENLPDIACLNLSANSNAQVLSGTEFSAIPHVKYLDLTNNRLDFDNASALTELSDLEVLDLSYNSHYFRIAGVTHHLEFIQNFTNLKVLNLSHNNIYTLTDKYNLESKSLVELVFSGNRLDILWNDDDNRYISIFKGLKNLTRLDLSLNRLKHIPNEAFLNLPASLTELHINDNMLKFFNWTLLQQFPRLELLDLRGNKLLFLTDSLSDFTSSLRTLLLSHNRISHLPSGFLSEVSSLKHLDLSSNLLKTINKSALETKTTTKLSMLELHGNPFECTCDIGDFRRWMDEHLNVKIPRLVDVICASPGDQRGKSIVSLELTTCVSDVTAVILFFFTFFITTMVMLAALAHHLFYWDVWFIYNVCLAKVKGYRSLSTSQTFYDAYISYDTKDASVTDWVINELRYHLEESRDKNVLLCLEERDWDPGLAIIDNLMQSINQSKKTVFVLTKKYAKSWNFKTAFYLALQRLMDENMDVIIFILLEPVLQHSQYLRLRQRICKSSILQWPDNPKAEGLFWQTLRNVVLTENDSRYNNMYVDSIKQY

IC50 (human TLR9; [4]): 5830 nM | IC50 (human TLR7; [5]): 4.6 nM | IC50 (human TLR8; [6]): 28 nM
SMILES: COc1cc(-c2[nH]c3ccc(C4CCC(N5CCC6(COC6)C5)CC4)nc3c2C(C)C)cn2ncnc12 (stereo not drawn) [Example 1073]

IC50 (human TLR9; [7]): 2050 nM | IC50 (human TLR7; [8]): 0.75 nM | IC50 (human TLR8; [9]): 6.2 nM
SMILES: COc1cc(-c2[nH]c3ccc(OC4CCN(C)CC4)nc3c2C(C)C)cn2ncnc12 [Example 600, 6-(3-isopropyl-5-((1-methylpiperidin-4-yl)oxy)-1H-pyrrolo[3,2-b]pyridin-2-yl)-8-methoxy-[1,2,4]triazolo[1,5-a]pyridine]

IC50 (human TLR9; [7]): 14600 nM | IC50 (human TLR7; [8]): 2310 nM | IC50 (human TLR8; [9]): 2850 nM
SMILES: CC(C)c1c(-c2cn(C)c3ncccc23)[nH]c2ccc(CCC3CN(C4COC4)C3)nc12 [Example 694]

IC50 (human TLR9; [7]): 14500 nM | IC50 (human TLR7; [8]): 9.7 nM | IC50 (human TLR8; [9]): 4.6 nM
SMILES: Cc1cc(-c2[nH]c3ccc(C4CNCCO4)nc3c2C(C)C)cn(C)c1=O (stereo not drawn) [Example 675]

IC50 (human TLR9; [1]): 156 nM | IC50 (human TLR7; [2]): 0.43 nM | IC50 (human TLR8; [3]): 1.7 nM
SMILES: COc1cc(-c2[nH]c3ccc(C4CCC(NC(C)C)CC4)nc3c2C(C)C)cn2ncnc12 (stereo not drawn) [Example 167]

IC50 (human TLR9; TLR9 IC50, HEK-Blue cells overexpressing human TLR9, ODN2006 5 nM stimulation, SEAP reporter): 8120 nM | IC50 (human TLR7; [2]): 4.4 nM | IC50 (human TLR8; TLR8 IC50, HEK-Blue cells overexpressing human TLR8, R848 15.9 μM stimulation, SEAP reporter): 52 nM
SMILES: COc1cc(-c2[nH]c3ccc(C4CCC(N)C4)nc3c2C(C)C)cn2ncnc12 (racemic) [Example 7, 3-(3-isopropyl-2-(8-methoxy-[1,2,4]triazolo[1,5-a]pyridin-6-yl)-1H-pyrrolo[3,2-b]pyridin-5-yl)cyclopentan-1-amine]

IC50 (human TLR9; [1]): 833 nM | IC50 (human TLR7; [2]): 3.9 nM | IC50 (human TLR8; [3]): 6.3 nM
SMILES: COCc1cc(-c2[nH]c3ccc(C4CCC(NC5COC5)CC4)nc3c2C(C)C)cn2ncnc12 (stereo not drawn) [Example 214]

IC50 (human TLR9; [7]): 155 nM | IC50 (human TLR7; [8]): 0.22 nM | IC50 (human TLR8; [9]): 1.9 nM
SMILES: Cc1cc(-c2[nH]c3ccc(C4CCNCC4)nc3c2C(C)C)cn2ncnc12 [Example 516]

The remaining lines, values behind:

SMILES: COCc1cc(-c2[nH]c3ccc(C4CCC(NC5COC5)CC4)nc3c2C(C)C)cn2ncnc12 (stereo not drawn) [Example 229]
IC50 (human TLR9; [1]): 1710 nM | IC50 (human TLR7; [2]): 19 nM | IC50 (human TLR8; [3]): 18 nM

SMILES: CCCN1CC2(C1)CN(c1ccc3[nH]c(-c4cc(OC)c5ncnn5c4)c(C(C)C)c3n1)C2 [Example 1019]
IC50 (human TLR9; [4]): 3280 nM | IC50 (human TLR7; [5]): 1.7 nM | IC50 (human TLR8; [6]): 16 nM

SMILES: Cc1cc(-c2[nH]c3ccc(C4CN(C)CCO4)nc3c2C(C)C)cn(C)c1=O (stereo not drawn) [Example 665]
IC50 (human TLR9; [7]): > 50000 nM | IC50 (human TLR7; [8]): 34 nM | IC50 (human TLR8; [9]): 17 nM

SMILES: Cc1c(-c2[nH]c3ccc(N4C[C@H](C)N(C(=O)CN(C)C)[C@@H](C)C4)nc3c2C(C)C)cn2ncnc2c1C [Example 760]
IC50 (human TLR9; [7]): 7630 nM | IC50 (human TLR7; [8]): 4.2 nM | IC50 (human TLR8; [9]): 27 nM

SMILES: Cc1c(-c2[nH]c3ccc(N4C[C@H]5CC[C@@H]4CN5)nc3c2C(C)C)cn2ncnc2c1C [Example 980]
IC50 (human TLR9; [4]): 6270 nM | IC50 (human TLR7; [5]): 2.2 nM | IC50 (human TLR8; [6]): 2.3 nM

SMILES: Cc1c(-c2[nH]c3ccc(C4CCC(N(C)C5COC5)CC4)nc3c2C(C)C)cn(C)c(=O)c1C (stereo not drawn) [Example 249]
IC50 (human TLR9; [1]): 5980 nM | IC50 (human TLR7; [2]): 25 nM | IC50 (human TLR8; [3]): 7.3 nM

SMILES: Cc1c(-c2[nH]c3ccc(C4CCC(N(CCO)CC5(S(C)(=O)=O)CC5)CC4)nc3c2C(C)C)cn2ncnc2c1C (stereo not drawn) [Example 482]
IC50 (human TLR9; [7]): > 50000 nM | IC50 (human TLR7; [8]): 96 nM | IC50 (human TLR8; [9]): 238 nM

SMILES: Cc1c(-c2[nH]c3ccc(C4CN(C)CCO4)nc3c2C(C)C)cn2ncnc2c1C (stereo not drawn) [Example 673]
IC50 (human TLR9; [7]): 14400 nM | IC50 (human TLR7; [8]): 5.2 nM | IC50 (human TLR8; [9]): 6.9 nM

SMILES: Cc1c(-c2[nH]c3ccc(N4CCN(C5CCOCC5)C[C@@H]4C)nc3c2C(C)C)cn2ncnc2c1C [Example 820]
IC50 (human TLR9; [4]): 9400 nM | IC50 (human TLR7; [5]): 2.7 nM | IC50 (human TLR8; [6]): 2 nM

SMILES: Cc1c(-c2[nH]c3ccc(N4[C@@H]5CC[C@H]4CN(C(=O)CCN(C)C)C5)nc3c2C(C)C)cn2ncnc2c1C [Example 913]
IC50 (human TLR9; [4]): 8840 nM | IC50 (human TLR7; [5]): 1 nM | IC50 (human TLR8; [6]): 1.8 nM

SMILES: Cc1c(-c2[nH]c3ccc(N4CC5(CCN(CCS(C)(=O)=O)CC5)C4)nc3c2C(C)C)cn2ncnc2c1C [Example 45]
IC50 (human TLR9; [1]): 7280 nM | IC50 (human TLR7; [2]): 22 nM | IC50 (human TLR8; [3]): 20 nM

SMILES: COc1cc(-c2[nH]c3ccc(C4CCC(N(C)C)CC4)nc3c2C(C)C)cn2ncnc12 (stereo not drawn) [Example 187]
IC50 (human TLR9; [1]): 4220 nM | IC50 (human TLR7; [2]): 2.1 nM | IC50 (human TLR8; [3]): 20 nM

SMILES: Cc1c(-c2[nH]c3ccc(N4[C@@H]5CC[C@H]4CN(C(=O)CN(C)C)C5)nc3c2C(C)C)cn2ncnc2c1C [Example 747]
IC50 (human TLR9; [7]): 7380 nM | IC50 (human TLR7; [8]): 0.59 nM | IC50 (human TLR8; [9]): 4.1 nM

SMILES: Cc1c(-c2[nH]c3ccc(N4C[C@@H](C)N(C(=O)CCN5CCOCC5(C)C)C[C@@H]4C)nc3c2C(C)C)cn2ncnc2c1C [Example 963]
IC50 (human TLR9; [4]): 35300 nM | IC50 (human TLR7; [5]): 0.84 nM | IC50 (human TLR8; [6]): 1.9 nM
